# Results as given in US20090264533A1, “Methods and Compositions for Modulating RHO-Mediated Gene Transcription” (priority 2005, published 2009).
# Several values for one entry are separate records, joined by “and”; a condition that tells them apart may be missing. Equal entries are not always repeated. Entries after “also recorded” stand apart in the source; their conditions may differ. Where two headings read alike, the source gives them in different places.
# Tests used:
# [1] = tested on: Gα13/LARG/SRE transcriptional signaling pathway; assay: Gα13QL/LARG-stimulated SRE.L luciferase reporter assay (HTS) in HEK293T cells; assay type: cell-based, human; details: for Inhibition of G13/LARG-stimulated rho transcriptional signaling: FIG. 5
# Protocol: FIG. 2 Optimization of HTS Assay. HEK293T cells in 10 cm dishes were co-transfected with 2×-SRE luciferase reporter plasmid (3000 ng) alone or with Gα13QL (5 ng constitutive active mutant) and LARG (150 ng) expression plasmids for 5 hours. Then, the cells were plated into 96-well, and serum-starved for approx. 18 hours (0.5% Fetal Bovine Serum, DMEM medium). Cells were lysed and assayed for luciferase activity via Steady-Glo reagent (Promega) and a luminometer.
# In exemplary embodiments of the present invention, HEK293T cells were transiently transfected with a 2×SRE.L-luciferase reporter plasmid that responds selectively to rho signaling (Hill et al., Cell 81:1159-1170, 1995). […] This expression plasmid is specific for rho/MKL/SRF driven gene expression. To stimulate rho, the upstream activators G13 and LARG (FIG. 1) were used. A constitutively active Gα13Q226L plasmid was co-transfected, along with an N-terminal myc-tagged LARG plasmid from Dr. Tohru Kozasa.
# To use the reporter assay readout for high throughput chemical inhibition studies, the assay was modified to accommodate chemical inhibitors. Transfection was performed in 10 cm dishes with Lipofectamine 2000. Five hours after transfection, the cells were trypsinized and 30,000 cells per well were transferred into sterile white flat-bottom 96-well plates pre-spotted with 1 μl of chemical compound in DMSO (10 μM final conc). Cells were grown overnight in low serum (0.5% FBS/DMEM medium) exposed to the chemical compounds (in 1% DMSO) for approximately 18 hours before luminescence was read with Steady-Glo luciferase reagent (Promega) in a Victor II plate reader. As a positive inhibitor control, 0.5 μM of Latrunculin B was added to 8 wells per plate. In addition, 8 wells were treated with DMSO only. Latrunculin B is a marine toxin from the Red Sea sponge that is known to sequester monomeric G-actin in the cell and block rho-mediated transcriptional events (Miralles et al., Cell 113:329-342, 2003). The percent inhibition of the Gα13 QL/LARG stimulated SRE-luciferase response was calculated by setting the mean of the negative control (DMSO only) at 0% and the mean of the positive control (Latrunculin B) at 100%. The Z′ score of the assay for high throughput screening was excellent at 0.7 (FIG. 2) indicating reproducibility well-suited to HTS studies.
# (§1) An exemplary screen for small molecule inhibitors of the Gα13/LARG/SRE transcriptional signaling pathway utilized a 2000 compound subset of the Maybridge Diverse Chemical Compound Library at 10 μM in the firefly luciferase assay described above. SRE transcription was stimulated by co-transfection of the constitutively active Gα13QL with LARG. […] A cutoff of 75% inhibition was chosen to identify hits for inhibition of the Gα13/LARG/SRE transcriptional signaling pathway. A total of 39 out of 2000 compounds met this criterion. […] To address this issue, a dual luciferase method with a “flash” luciferase substrate plus CMV-Renilla was used as a non-SRF-dependent reporter to eliminate toxic compounds (Table 2). This screen yielded only 4 compounds that were active and specific for the SRE.L reporter signal.
# ROCK = assay: Luciferase expression stimulated by transfecting in the kinase ROCK; assay type: cell-based
# PC-3 cells [2] = assay: Cell rounding assay in PC-3 cells; assay type: cell-based, human; details: 30 min
# Protocol: Cell Rounding Assay—The day before transfection, PC-3 cells were grown on laminin-coated coverslips in 12-well plates until […]. Cells were then transfected with 0.2 μg of EGFP cDNA. To disrupt rho signaling GFP was co-transfected with either a C3 exotoxin expression vector (0.5 μg) or with 2.0 μg of the indicated siRNA or inverted control along with 8 μl/well of LipofectAMINE 2000. At 45 h post-transfection, cultures were changed to serum-free medium and 6 h later treated with either buffer, thrombin (100 nM), or LPA (50 μM) for 30 min. Cells were then fixed with 4% paraformaldehyde for 10 min and GFP images obtained using an Olympus fluorescence microscope with a 20× objective. Fluorescent cells were counted (100-300 per coverslip) and the percentage of rounded cells determined. Cell rounding at 30 min was dose-dependent (EC50 80 nM for thrombin and 50 μM for LPA) and reversible upon removal of thrombin for 45 min.
# rho stimulates several types of cytoskeletal rearrangements. […] In these studies, at 48 h after transfection, cells were stimulated with thrombin (100 nM) or LPA (50 μM) for 30 min, fixed, and fluorescence images taken. […] At 48 h post-transfection cells were stimulated with thrombin or LPA and analyzed as described above. One-hundred green cells from each coverslip were counted, and the percentage of round cells was determined. […]
# [3] = tested on: SKOV-3 ovarian cancer cell line; assay: BrdU incorporation in SKOV-3 cells; assay type: cell-based
# GAL4-VP16 Luciferase = GAL4-VP16 Luciferase control reporter; assay type: cell-based
# SRE Luciferase = SRE Luciferase reporter with different rho pathway activators (PC-3 cells, FIG. 8, FIG. 13); assay type: cell-based, human; details: for luciferase expression induced by G13, LARG or constitutively active rhoA-GV: FIG. 8
# Protocol: (§2) FIG. 8 Inhibition of reporter gene transcription in PC-3 cells. CCG 1423 (10 μM) acts at the transcriptional level inhibiting SRE Luciferase stimulated by both upstream (Gα13, LARG, and RhoA-GV) and downstream signals (MKL1).
# FIG. 13. Inhibition by CCG-1423 of three different rho pathway activators (G13, rhoA-GV, and MKL1) with no effect on control reporter plasmid CMV-Renilla.
# (§3) The point of action of these inhibitors in the assay was investigated by transfecting the cells with different activators of the pathway (rho, MKL1, and an activated SRF analog SRF-VP16). […] This is consistent with the known site of action of Latruculin. […] Thus, the compounds may be acting by inhibiting MKL- or SRF- or both MKL and SRF-dependent gene transcription. […] Regardless of the mechanism of action, the present invention describes a novel gene transcription inhibitor that selectively prevents MKL/SRF-mediated signals.
# RhoA = RhoA transcriptional signal, SRE-Luciferase / CMV-Renilla dual reporters (FIG. 6); assay type: cell-based; details: 6 micromolar, added 6 hours after transfection, read 16 hours later
# Protocol: (§4) FIG. 6 CCG-1423 inhibits both RhoA and RhoC transcriptional signals. Cells were transfected with the dual reporters SRE-Luciferase and CMV-Renilla then 6 hours later, 6 micromolar CCG-1423 was added and reporter activity measured 16 hours later.
# CMV-Renilla = CMV-Renilla control reporter expression; assay type: cell-based
# Protocol: as §4, §2, §1, §3
# PC-3 cells [4] = assay: WST1 metabolism viability control for BrdU studies; assay type: cell-based, human; details: 10 uM, 18 hours of drug treatment, absence of serum
# Protocol: Even more exciting are the effects of the novel inhibitors of the present invention on PC-3 cell functions (LPA-stimulated DNA synthesis, proliferation, and invasion). More particularly, it is shown that for the highly aggressive human PC-3 prostate cancer cell line, the novel inhibitors described herein inhibit proliferation, LPA-stimulated DNA synthesis, and matrix invasion. All of these effects occur at remarkably similar concentrations (IC50 900, 830, and 600 nM, respectively). This is also very similar to the concentration needed to inhibit rho-stimulated SRE.L luciferase expression in HEK293T cells (980 nM). […] Only at high concentrations (10 uM) is there any effect on proliferation or matrix invasion and there is no inhibition of BrdU incorporation as well.
# SKOV-3 cells [5] = assay: Matrigel matrix invasion by SKOV-3 cells; assay type: cell-based
# Protocol: FIG. 11 CCG-1423 inhibits the spontaneous matrix invasion by PC-3 cells. Top) One prostate and three ovarian cancer lines (50,000 cells per well) were lifted with trypsin, suspended in serum free medium and plated on 24-well Matrigel inserts with (solid) or without (hatched) 30 μM LPA in the lower chamber. After 24 hours, cells above the filter were wiped off and the remaining cells were fixed, stained, and counted to determine the number of cells that had invaded the Matrigel. Bottom) Matrigel invasion by PC-3 cells (-LPA) and SKOV-3 cells (+30 μM LPA) was tested in the presence of the indicated concentrations of CCG-1423.
# RhoC = RhoC transcriptional signal, SRE-Luciferase / CMV-Renilla dual reporters (FIG. 6); assay type: cell-based; details: 6 micromolar, added 6 hours after transfection, read 16 hours later
# Protocol: as §4
# [6] = tested on: PC-3 prostate cancer cells; assay: DNA synthesis (BrdU incorporation) in PC-3 cells; assay type: cell-based, human; details: presence of serum
# Protocol: FIG. 9 Serum and LPA stimulate DNA synthesis in PC-3 cells. PC-3 cells serum starved for 24 hours were treated for an additional 24 hours in the presence of serum (10% FBS) or the indicated concentrations of LPA. BrdU was added to the medium for the last 2 hours and incorporated BrdU detected in 96-well plates by immunostaining.
# FIG. 10 CCG-1423 inhibits LPA- but not FBS-stimulated DNA synthesis in PC-3 prostate cancer cells.
# SKOV-3 cells [7] = assay: Cell growth (WST1 absorbance) of SKOV-3 cells; assay type: cell-based
# Protocol: PC-3 or SKOV-3 cells (2000 per well) were plated in medium containing 2% FBS. After growth overnight, the indicated concentrations of CCG-1423 were added from a DMSO stock (<1% final) and cells allowed to continue growing for an additional 7 days. Cell growth was measured by WST1 absorbance (similar to MTT). The IC50 values for PC-3 and SKOV-3 cells were 600 nM and 3 μM. The dotted line represents a no-cell blank.
# ras = assay: ras-stimulated transcriptional signals (c-fos and SRE.L reporters, FIG. 14); assay type: cell-based; details: for ras-stimulated transcriptional signals: c-fos reporter, FIG. 14 bottom panel
# From the text: FIG. 14. […] The rho reporter SRE.L can also be activated by ras (probably via rho activation).
# [8] = tested on: RGS-rhoGEFs (LARG, PDZrhoGEF, p115rhoGEF); assay: rhoGEF-stimulated SRE.L dual luciferase assay in HEK293 cells; assay type: cell-based, human; details: 0.5 μM
# Protocol: Luciferase Assays—Twenty-four hours post-transfection with firefly and Renilla vectors, HEK293 cells were serum-starved (0.5% serum), and then at 48 h, luciferase activity was determined using the dual luciferase assay kit (Promega, Madison, Wis.) according to the manufacturer's instructions. The ratio of firefly to Renilla luciferase counts was calculated. Data are expressed as the percent of the control value (samples without siRNA).
# In these studies, each rhoGEF plasmid DNA (p115, PDZ, or LARG) was introduced into HEK293T cells using LipofectAMINE 2000 in a 96-well plate along with the dual luciferase reporters (SRE.L and pRL-TK) and a panel of different rhoGEF siRNAs (+) or inverted mutant siRNAs (−). […] Firefly/Renilla ratios for the siRNAs (+ and −) were expressed as a percent of that for buffer controls with only the rhoGEF and reporter cDNAs transfected.
molecule,measurement,setting,value
"C[C@@H](N)[C@H]1CC[C@H](C(=O)Nc2ccncc2)CC1 [Y-27632, reference compound]",Inhibition of G13/LARG-stimulated rho transcriptional signaling,[1],only partially blocked; also recorded: Inhibition
same,luciferase expression stimulated by transfecting in the kinase ROCK,ROCK,fully inhibited
thrombin,EC50,PC-3 cells [2],80 nM
CC(ONC(=O)c1cc(C(F)(F)F)cc(C(F)(F)F)c1)C(=O)Nc1ccc(Cl)cc1 (stereo not drawn) [CCG-1423],inhibition of BrdU incorporation,[3],no inhibition
same,Gal-4-VP16 Luciferase signal,GAL4-VP16 Luciferase; 3 μM,only a slight inhibitory effect
same,GAL4-VP16 Luciferase,"GAL4-VP16 Luciferase; 10 μM, PC-3 cells",no effect
same,luciferase expression activated by SRF-VP16,SRE Luciferase,inhibited; also recorded: able to inhibit
same,luciferase expression induced by MKL,SRE Luciferase,inhibited
same,"SRE Luciferase stimulated by upstream (Gα13, LARG, and RhoA-GV) and downstream signals (MKL1)","SRE Luciferase; 10 μM, PC-3 cells",inhibiting
same,SRF-VP16 Luciferase,"SRE Luciferase; 10 μM, PC-3 cells",no effect
same,"luciferase expression induced by G13, LARG or constitutively active rhoA-GV",SRE Luciferase,inhibited
same,"three different rho pathway activators (G13, rhoA-GV, and MKL1)",SRE Luciferase; FIG. 13,Inhibition
same,Inhibition of G13/LARG-stimulated rho transcriptional signaling,[1],Inhibition
same,IC50,"[1]; HEK293T cells, dose response curves, read-out: IC50, inhibition of G13/LARG (rho-) stimulated SRE.L luciferase expression",~1000 nM and 980 nM and 800 nM
same,IC50,"[1]; HTS reporter assay, read-out: IC50, inhibition of MKL/SRF-dependent gene transcription",~800 nM
same,RhoA transcriptional signal (SRE-Luciferase),RhoA,blocking; also recorded: inhibits
same,CMV-Renilla expression,CMV-Renilla; 3 μM,did not inhibit
same,CMV-driven Renilla expression,"CMV-Renilla; 10 μM, PC-3 cells",does not inhibit
same,control reporter CMV-Renilla expression,CMV-Renilla; concentration not given,not inhibited; also recorded: no effect
same,viable cells (WST1 metabolism),PC-3 cells [4],no decrease in viable cells
same,concentration at which there is any effect on matrix invasion,SKOV-3 cells [5],10 µM
same,RhoC transcriptional signal (rhoC-stimulated luciferase expression),RhoC,inhibits
same,FBS (serum)-stimulated DNA synthesis,[6],not inhibited until high concentrations are reached
same,concentration at which there is any effect on proliferation,SKOV-3 cells [7],10 µM
same,IC50,"SKOV-3 cells [7]; 2% FBS, 7 days, WST1",3000 nM
same,ras-stimulated transcriptional signals,ras,inhibition
"C/C1=C/C(=O)O[C@@H]2C[C@@H](CC[C@H](C)/C=C\CC1)O[C@@](O)([C@@H]1CSC(=O)N1)C2 [Latrunculin B, reference compound]",luciferase expression activated by SRF-VP16,SRE Luciferase,did not inhibit
same,"luciferase expression induced by G13, LARG or constitutively active rhoA-GV",SRE Luciferase,fully inhibits
same,Inhibition of G13/LARG-stimulated rho transcriptional signaling,[1],Inhibition
same,rhoGEF-stimulated luciferase signal,[8],completely eliminated
same,SRE.L rho reporter signal activated by ras,ras; FIG. 14,blocked
same,ras-stimulated transcriptional signals,ras,not
"lysophosphatidic acid [LPA, reference compound]",EC50,PC-3 cells [2],50000 nM
